{"source": "ChEMBL document CHEMBL5653631", "about": "“A Potent and Selective ULK1 Inhibitor Suppresses Autophagy and Sensitizes Cancer Cells to Nutrient Stress” (iScience, 2018)", "key": {"[1]": {"target": "Focal adhesion kinase 1 (Homo sapiens) (UniProt Q05397)", "sequence (Q05397 2-1052 limits assumed)": "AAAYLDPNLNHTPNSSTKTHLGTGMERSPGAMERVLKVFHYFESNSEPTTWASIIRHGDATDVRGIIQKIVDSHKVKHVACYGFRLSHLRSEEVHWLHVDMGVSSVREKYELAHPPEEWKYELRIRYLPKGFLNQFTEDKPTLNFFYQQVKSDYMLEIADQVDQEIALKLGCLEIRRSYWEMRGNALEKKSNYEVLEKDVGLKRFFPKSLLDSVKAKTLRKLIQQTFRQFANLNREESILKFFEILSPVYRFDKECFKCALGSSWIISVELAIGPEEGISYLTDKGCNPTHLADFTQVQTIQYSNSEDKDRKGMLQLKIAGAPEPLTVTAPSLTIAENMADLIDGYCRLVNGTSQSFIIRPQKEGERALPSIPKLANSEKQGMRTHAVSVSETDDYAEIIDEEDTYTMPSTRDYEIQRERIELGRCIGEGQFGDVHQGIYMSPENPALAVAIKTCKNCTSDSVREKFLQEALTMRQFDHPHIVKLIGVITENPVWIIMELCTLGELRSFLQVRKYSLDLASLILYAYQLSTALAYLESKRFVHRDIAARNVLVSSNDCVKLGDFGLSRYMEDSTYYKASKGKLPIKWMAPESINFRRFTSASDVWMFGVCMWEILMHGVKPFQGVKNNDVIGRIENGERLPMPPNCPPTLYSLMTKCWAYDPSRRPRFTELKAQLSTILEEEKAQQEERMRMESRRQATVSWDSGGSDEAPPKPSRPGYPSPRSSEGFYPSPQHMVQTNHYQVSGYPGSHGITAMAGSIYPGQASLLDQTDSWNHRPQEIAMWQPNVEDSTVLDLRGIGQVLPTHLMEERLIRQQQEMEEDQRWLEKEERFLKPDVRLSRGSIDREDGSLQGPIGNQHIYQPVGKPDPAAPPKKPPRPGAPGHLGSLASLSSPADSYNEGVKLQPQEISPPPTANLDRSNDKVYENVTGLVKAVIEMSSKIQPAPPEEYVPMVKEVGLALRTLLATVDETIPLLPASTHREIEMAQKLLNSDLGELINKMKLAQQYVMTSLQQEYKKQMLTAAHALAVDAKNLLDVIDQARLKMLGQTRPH", "assay": "Inhibition of human recombinant FAK at 40 nM in presence of ATP by radiometric assay relative to control"}, "[2]": {"target": "T1, Receptor-interacting serine/threonine-protein kinase 1 (Homo sapiens) (UniProt Q13546)", "T1 sequence (whole entry)": "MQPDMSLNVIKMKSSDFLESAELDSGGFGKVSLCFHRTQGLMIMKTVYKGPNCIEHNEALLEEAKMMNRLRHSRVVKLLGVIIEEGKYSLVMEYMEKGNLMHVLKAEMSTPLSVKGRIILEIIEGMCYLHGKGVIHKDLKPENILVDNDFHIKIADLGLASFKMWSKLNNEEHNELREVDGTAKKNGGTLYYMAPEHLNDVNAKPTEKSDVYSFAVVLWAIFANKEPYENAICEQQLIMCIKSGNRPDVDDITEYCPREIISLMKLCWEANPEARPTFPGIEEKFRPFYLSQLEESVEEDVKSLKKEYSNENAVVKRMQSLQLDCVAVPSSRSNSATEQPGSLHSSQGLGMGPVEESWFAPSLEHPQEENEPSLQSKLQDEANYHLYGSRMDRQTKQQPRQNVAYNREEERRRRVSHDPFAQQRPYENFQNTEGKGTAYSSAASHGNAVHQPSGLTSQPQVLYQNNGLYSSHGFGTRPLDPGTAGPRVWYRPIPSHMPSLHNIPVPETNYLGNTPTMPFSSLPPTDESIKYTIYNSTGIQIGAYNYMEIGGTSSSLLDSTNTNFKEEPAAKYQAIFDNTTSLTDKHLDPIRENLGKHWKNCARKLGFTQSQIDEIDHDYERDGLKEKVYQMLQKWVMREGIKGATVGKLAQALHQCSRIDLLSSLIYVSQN", "assay": "Inhibition of human recombinant RIPK1 at 40 nM in presence of ATP by radiometric assay relative to control"}, "[3]": {"target": "T2, Mitogen-activated protein kinase kinase kinase 2 (Homo sapiens) (UniProt Q9Y2U5)", "T2 sequence (whole entry)": "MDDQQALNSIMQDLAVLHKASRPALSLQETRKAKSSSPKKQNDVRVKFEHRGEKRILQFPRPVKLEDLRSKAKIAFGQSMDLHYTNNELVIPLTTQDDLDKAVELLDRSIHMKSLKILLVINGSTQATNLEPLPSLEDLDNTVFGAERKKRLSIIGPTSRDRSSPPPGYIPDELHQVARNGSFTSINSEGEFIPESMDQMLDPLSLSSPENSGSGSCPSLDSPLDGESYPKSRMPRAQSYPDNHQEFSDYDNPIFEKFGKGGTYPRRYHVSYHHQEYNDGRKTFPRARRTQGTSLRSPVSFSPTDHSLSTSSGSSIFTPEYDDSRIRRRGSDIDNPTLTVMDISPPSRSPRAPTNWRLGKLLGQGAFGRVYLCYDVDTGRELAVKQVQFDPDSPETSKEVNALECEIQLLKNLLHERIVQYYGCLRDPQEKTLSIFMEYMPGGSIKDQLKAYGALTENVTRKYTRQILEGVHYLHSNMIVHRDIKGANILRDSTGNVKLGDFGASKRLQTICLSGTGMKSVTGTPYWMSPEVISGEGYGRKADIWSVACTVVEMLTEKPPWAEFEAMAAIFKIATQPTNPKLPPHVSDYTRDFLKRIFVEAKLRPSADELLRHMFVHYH", "assay": "Inhibition of human recombinant MAP3K2 at 500 nM in presence of ATP by radiometric assay relative to control"}, "[4]": {"target": "T3, Serine/threonine-protein kinase ULK2 (Homo sapiens) (UniProt Q8IYT8)", "T3 sequence (whole entry)": "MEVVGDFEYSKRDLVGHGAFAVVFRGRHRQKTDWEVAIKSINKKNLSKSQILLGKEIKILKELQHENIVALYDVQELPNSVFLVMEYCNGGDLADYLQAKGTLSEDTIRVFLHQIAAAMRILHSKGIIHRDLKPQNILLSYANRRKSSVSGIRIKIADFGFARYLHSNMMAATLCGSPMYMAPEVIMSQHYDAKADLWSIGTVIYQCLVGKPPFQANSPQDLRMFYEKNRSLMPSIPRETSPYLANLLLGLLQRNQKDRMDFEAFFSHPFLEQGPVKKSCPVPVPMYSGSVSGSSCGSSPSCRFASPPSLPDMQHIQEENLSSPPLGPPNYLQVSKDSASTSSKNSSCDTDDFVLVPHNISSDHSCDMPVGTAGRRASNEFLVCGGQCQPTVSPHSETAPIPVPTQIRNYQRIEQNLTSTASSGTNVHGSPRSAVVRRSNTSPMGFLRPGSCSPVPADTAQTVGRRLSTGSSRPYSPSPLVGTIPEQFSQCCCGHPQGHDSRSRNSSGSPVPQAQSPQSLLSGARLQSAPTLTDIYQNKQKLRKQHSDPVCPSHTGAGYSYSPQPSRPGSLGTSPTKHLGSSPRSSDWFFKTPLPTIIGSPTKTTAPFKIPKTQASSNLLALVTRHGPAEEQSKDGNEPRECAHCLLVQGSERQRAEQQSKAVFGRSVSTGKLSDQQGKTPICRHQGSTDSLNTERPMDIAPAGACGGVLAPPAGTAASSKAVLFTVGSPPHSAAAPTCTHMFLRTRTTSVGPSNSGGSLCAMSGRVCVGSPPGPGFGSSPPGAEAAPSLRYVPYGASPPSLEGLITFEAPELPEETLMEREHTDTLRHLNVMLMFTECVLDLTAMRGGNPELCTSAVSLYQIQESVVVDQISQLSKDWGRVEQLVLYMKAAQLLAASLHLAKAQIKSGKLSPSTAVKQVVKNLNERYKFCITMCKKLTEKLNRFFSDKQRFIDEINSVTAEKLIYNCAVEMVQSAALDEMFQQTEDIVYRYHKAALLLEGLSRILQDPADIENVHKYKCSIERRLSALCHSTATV", "assay": "Inhibition of human recombinant ULK2 at 500 nM in presence of ATP by radiometric assay relative to control"}, "[5]": {"target": "Serine/threonine-protein kinase mTOR (Homo sapiens) (UniProt P42345)", "assay": "Inhibition of human recombinant FRAP at 500 nM in presence of ATP by radiometric assay relative to control"}, "[6]": {"target": "Serine/threonine-protein kinase 10 (Homo sapiens) (UniProt O94804)", "sequence (O94804 whole entry, looked up)": "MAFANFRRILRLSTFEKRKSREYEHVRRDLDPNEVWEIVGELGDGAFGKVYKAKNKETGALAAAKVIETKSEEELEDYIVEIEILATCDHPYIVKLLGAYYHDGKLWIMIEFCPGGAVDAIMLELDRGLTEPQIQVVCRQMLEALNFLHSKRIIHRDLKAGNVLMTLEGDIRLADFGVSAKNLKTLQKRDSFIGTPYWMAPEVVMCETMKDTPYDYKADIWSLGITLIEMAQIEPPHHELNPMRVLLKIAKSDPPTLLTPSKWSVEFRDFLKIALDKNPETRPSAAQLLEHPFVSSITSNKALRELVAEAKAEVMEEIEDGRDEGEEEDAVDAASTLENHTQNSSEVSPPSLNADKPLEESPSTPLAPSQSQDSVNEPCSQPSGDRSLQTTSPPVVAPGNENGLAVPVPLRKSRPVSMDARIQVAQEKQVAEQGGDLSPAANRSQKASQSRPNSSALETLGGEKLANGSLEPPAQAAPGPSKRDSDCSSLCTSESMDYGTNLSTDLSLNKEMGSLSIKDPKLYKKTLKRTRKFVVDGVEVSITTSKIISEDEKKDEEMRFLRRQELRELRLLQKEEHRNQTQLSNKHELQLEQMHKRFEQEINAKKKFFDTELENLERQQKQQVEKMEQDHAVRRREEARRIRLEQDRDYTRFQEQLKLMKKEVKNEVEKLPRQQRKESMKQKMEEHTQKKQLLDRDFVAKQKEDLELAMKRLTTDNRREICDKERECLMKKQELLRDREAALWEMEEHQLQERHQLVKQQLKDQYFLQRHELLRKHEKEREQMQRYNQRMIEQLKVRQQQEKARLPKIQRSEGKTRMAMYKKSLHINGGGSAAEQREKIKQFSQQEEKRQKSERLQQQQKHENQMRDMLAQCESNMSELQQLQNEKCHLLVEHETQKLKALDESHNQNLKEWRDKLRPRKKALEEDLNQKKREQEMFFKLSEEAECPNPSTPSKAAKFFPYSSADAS", "assay": "Inhibition of human recombinant LOK at 500 nM related to control ULK1"}, "[7]": {"target": "Tyrosine-protein kinase BTK (Homo sapiens) (UniProt Q06187)", "sequence (Q06187 whole entry)": "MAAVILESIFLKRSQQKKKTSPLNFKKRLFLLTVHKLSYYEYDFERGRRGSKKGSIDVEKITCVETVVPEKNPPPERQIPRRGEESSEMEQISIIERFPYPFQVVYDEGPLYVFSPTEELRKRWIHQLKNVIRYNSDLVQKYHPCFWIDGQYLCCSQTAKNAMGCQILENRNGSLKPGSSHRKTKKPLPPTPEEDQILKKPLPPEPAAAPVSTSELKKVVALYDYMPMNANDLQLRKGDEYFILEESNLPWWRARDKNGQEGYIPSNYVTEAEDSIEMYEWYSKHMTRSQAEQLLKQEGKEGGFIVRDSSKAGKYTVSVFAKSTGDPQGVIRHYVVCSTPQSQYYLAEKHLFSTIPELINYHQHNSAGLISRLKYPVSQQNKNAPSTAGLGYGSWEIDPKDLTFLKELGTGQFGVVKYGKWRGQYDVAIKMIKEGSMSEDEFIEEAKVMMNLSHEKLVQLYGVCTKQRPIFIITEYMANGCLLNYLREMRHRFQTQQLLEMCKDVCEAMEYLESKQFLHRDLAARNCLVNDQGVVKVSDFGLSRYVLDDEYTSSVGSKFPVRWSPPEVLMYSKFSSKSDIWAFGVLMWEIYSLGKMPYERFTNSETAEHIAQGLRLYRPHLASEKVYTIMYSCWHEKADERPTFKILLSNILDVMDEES", "assay": "Inhibition of human recombinant BTK at 15 nM in presence of ATP by radiometric assay relative to control"}}}
{"smiles": "O=C(N[C@@H](C1CC1)C(F)(F)F)c1cc(-c2cnn3cc(-c4ccc(F)cc4)cnc23)cs1", "values": [{"measurement": "inhibition", "setting": "[1]", "result": 0, "unit": "%"}, {"measurement": "inhibition", "setting": "[2]", "result": 2, "unit": "%"}]}
{"smiles": "CNC(=O)c1ccccc1Oc1nc(Nc2cc(OC)c(OC)c(OC)c2)ncc1Br", "values": [{"measurement": "inhibition", "setting": "[3]", "result": 3, "unit": "%"}, {"measurement": "inhibition", "setting": "[4]", "result": 48, "unit": "%"}, {"measurement": "inhibition", "setting": "[5]", "result": 0, "unit": "%"}, {"measurement": "fold change (FC)", "setting": "[6]", "result": 0}]}
{"smiles": "CC(C)[C@H](NC(=O)c1cc(-c2cnn3cc(-c4ccc(OCCN5CCCCC5)cc4)cnc23)cs1)C(F)(F)F", "values": [{"measurement": "inhibition", "setting": "[7]", "result": 0, "unit": "%"}]}
